Results: patent publication US10844077B2, “Thiazolyl-containing compounds for treating proliferative diseases” (Dana-Farber Cancer Institute, Inc., priority 2014, dated 2020)
Like-named read-outs stand apart in the source and are kept apart here.

Key:
Assay type in all cases: binding
broad panel of kinases [1] = target: broad panel of kinases (Homo sapiens, UniProt Q96GD4); details: AURKB; 1 μM
broad panel of kinases [2] = target: broad panel of kinases (Homo sapiens, UniProt Q8IVW4); details: CDKL3; 1 μM
broad panel of kinases [3] = target: broad panel of kinases (Homo sapiens, UniProt Q9UF33); details: EPHA6; 1 μM
Chain of broad panel of kinases (Homo sapiens, UniProt Q9UF33) (Q9UF33 23-1036 limits assumed): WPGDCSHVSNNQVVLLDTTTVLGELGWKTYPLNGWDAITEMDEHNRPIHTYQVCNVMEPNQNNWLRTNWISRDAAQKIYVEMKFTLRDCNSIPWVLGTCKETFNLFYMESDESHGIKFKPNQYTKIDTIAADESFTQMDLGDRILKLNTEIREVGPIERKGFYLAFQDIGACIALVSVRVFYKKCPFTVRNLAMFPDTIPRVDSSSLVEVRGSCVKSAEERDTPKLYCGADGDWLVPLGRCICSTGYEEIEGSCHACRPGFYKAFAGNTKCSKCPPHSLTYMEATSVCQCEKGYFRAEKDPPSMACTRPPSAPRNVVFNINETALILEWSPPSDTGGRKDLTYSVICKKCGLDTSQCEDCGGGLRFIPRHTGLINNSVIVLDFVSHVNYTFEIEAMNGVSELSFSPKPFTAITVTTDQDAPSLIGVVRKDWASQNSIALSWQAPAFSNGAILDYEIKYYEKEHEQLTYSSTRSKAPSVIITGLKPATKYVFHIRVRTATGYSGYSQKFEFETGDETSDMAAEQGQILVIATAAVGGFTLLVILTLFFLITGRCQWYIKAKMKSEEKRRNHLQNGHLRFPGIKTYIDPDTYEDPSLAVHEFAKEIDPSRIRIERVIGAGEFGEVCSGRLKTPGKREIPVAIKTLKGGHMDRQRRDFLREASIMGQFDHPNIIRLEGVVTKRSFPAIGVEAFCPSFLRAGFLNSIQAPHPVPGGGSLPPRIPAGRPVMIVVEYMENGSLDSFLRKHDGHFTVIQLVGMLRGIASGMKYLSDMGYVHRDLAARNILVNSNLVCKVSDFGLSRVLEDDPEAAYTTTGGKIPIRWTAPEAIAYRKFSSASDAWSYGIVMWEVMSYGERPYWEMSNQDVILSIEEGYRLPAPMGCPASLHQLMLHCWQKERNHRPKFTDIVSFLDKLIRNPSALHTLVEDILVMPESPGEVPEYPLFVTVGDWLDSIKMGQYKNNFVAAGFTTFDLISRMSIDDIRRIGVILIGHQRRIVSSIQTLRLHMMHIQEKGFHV

broad panel of kinases [4] = target: broad panel of kinases (Homo sapiens, UniProt P36888, D835H); details: FLT3(D835H); 1 μM
broad panel of kinases [5] = target: broad panel of kinases (Homo sapiens, UniProt Q52WX2); details: SBK1; 1 μM
broad panel of kinases [6] = target: broad panel of kinases (Homo sapiens, UniProt P54753); details: EPHB3; 1 μM
broad panel of kinases [7] = target: broad panel of kinases (Homo sapiens, UniProt P00519, Q252H); details: 1 μM
broad panel of kinases [8] = target: broad panel of kinases (Homo sapiens, UniProt Q9NYY3); details: PLK2; 1 μM
broad panel of kinases [9] = target: broad panel of kinases (Homo sapiens, UniProt P22694); details: PKAC-beta; 1 μM
broad panel of kinases [10] = target: broad panel of kinases (Homo sapiens, UniProt P10721, D816V); details: KIT(D816V); 1 μM
Chain of broad panel of kinases (Homo sapiens, UniProt P10721, D816V) (P10721 26-976 D816V limits assumed): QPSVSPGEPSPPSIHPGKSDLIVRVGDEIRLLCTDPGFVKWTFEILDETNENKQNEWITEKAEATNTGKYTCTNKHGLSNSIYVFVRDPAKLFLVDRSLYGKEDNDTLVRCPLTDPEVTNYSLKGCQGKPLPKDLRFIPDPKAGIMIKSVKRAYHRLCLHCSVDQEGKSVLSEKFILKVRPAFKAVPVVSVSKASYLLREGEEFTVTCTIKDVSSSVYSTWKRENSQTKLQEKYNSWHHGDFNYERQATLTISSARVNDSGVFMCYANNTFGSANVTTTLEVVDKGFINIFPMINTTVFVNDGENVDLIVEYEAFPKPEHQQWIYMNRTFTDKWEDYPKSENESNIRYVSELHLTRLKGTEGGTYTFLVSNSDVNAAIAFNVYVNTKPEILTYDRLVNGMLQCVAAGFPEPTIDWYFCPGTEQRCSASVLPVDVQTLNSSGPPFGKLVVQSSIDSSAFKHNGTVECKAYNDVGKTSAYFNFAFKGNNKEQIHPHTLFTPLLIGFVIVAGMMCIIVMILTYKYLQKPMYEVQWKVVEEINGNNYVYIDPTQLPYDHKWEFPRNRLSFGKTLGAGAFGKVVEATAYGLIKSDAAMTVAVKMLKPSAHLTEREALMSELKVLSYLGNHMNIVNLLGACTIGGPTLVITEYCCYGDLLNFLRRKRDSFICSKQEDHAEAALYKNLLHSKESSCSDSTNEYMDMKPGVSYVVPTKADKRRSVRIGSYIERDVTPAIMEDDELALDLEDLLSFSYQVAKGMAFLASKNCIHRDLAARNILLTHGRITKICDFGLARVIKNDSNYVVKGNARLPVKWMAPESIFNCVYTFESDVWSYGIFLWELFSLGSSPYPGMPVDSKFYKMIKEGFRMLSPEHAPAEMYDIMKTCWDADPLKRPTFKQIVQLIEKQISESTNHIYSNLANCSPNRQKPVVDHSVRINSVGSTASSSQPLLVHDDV

broad panel of kinases [11] = target: broad panel of kinases (Homo sapiens, UniProt O14965); details: AURKA; 1 μM
broad panel of kinases [12] = target: broad panel of kinases (Homo sapiens, UniProt P31751); details: AKT2; 1 μM
broad panel of kinases [13] = target: broad panel of kinases (Homo sapiens, UniProt P00533, G719S); details: EGFR(G719S); 1 μM
Chain of broad panel of kinases (Homo sapiens, UniProt P00533, G719S) (P00533 25-1210 G719S limits assumed): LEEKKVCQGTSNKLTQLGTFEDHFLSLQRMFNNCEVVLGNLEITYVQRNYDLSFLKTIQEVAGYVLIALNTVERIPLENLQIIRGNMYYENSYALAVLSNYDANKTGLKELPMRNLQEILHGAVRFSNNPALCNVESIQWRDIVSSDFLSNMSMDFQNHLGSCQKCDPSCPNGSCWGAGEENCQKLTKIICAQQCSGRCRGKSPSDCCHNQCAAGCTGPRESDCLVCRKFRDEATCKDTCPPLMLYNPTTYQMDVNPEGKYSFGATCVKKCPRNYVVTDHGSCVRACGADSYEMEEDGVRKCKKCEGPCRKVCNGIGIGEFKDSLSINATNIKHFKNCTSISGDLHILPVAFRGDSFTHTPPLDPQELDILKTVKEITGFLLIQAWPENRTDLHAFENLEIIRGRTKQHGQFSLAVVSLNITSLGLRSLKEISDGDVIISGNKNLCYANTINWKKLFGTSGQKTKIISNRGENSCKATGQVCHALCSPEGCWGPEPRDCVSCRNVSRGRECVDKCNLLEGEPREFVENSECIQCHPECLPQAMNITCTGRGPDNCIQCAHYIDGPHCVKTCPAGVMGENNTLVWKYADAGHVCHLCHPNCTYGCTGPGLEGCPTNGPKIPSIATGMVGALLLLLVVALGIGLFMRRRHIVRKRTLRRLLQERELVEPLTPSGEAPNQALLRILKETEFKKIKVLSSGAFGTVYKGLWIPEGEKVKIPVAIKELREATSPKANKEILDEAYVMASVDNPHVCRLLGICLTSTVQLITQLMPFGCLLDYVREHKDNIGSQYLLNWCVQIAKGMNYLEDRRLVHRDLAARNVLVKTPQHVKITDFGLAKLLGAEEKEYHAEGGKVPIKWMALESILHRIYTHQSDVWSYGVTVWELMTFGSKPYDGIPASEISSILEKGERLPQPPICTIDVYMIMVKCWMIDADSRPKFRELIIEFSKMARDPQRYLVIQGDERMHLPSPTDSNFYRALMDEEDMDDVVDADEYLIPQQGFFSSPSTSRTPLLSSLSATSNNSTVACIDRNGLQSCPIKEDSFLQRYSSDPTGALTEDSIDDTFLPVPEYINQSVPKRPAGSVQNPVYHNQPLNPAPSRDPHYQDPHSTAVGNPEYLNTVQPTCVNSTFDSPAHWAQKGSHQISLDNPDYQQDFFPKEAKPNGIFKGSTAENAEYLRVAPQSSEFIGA

broad panel of kinases [14] = target: broad panel of kinases (Homo sapiens, UniProt Q02156); details: PRKCE; 1 μM
broad panel of kinases [15] = target: broad panel of kinases (Homo sapiens, UniProt Q13470); details: TNK1; 1 μM
broad panel of kinases [16] = target: broad panel of kinases (Homo sapiens, UniProt Q59H18); details: TNNI3K; 1 μM
broad panel of kinases [17] = target: broad panel of kinases (Homo sapiens, UniProt Q92772); details: CDKL2; 1 μM
broad panel of kinases [18] = target: broad panel of kinases (Homo sapiens, UniProt Q96Q40)
broad panel of kinases [19] = target: broad panel of kinases (Homo sapiens, UniProt Q9UEE5); details: DRAK1; 1 μM
broad panel of kinases [20] = target: broad panel of kinases (Homo sapiens, UniProt Q9NRH2); details: SNRK; 1 μM
broad panel of kinases [21] = target: broad panel of kinases (Homo sapiens, UniProt P20794); details: MAK; 1 μM
broad panel of kinases [22] = target: broad panel of kinases (Homo sapiens, UniProt Q00526); details: CDK3; 1 μM
broad panel of kinases [23] = target: broad panel of kinases (Homo sapiens, UniProt P57059); details: SIK; 1 μM
broad panel of kinases [24] = target: broad panel of kinases (Homo sapiens, UniProt Q9H0K1); details: SIK2; 1 μM
broad panel of kinases [25] = target: broad panel of kinases (Homo sapiens, UniProt P27361); details: ERK1; 1 μM
broad panel of kinases [26] = target: broad panel of kinases (Homo sapiens, UniProt Q96RR4); details: CAMKK2; 1 μM
Chain of broad panel of kinases (Homo sapiens, UniProt Q96RR4) (Q96RR4 2-588 limits assumed): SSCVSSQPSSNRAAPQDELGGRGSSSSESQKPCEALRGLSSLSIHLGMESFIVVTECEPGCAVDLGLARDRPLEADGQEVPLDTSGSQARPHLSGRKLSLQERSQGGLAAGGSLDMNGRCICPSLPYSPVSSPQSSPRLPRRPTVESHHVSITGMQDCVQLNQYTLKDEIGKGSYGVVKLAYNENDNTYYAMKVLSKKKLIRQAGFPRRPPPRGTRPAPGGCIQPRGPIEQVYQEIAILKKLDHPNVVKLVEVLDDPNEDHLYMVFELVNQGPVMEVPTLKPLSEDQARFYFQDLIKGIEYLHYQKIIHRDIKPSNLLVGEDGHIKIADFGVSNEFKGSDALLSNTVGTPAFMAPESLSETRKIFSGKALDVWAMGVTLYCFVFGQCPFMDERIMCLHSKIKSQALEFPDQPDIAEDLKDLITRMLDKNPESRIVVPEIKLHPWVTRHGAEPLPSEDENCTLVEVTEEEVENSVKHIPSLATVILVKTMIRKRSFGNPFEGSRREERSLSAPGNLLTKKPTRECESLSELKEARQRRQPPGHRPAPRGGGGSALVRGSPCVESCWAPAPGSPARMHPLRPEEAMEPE

broad panel of kinases [27] = target: broad panel of kinases (Homo sapiens, UniProt Q96PY6); details: NEK1; 1 μM
broad panel of kinases [28] = target: broad panel of kinases (Homo sapiens, UniProt Q56UN5); details: YSK4; 1 μM
broad panel of kinases [29] = target: broad panel of kinases (Homo sapiens, UniProt Q9H2K8); details: TAOK3; 1 μM
broad panel of kinases [30] = target: broad panel of kinases (Homo sapiens, UniProt O43293); details: DAPK3; 1 μM
broad panel of kinases [31] = target: broad panel of kinases (Homo sapiens, UniProt O94768); details: DRAK2; 1 μM
broad panel of kinases [32] = target: broad panel of kinases (Homo sapiens, UniProt O75914); details: PAK3; 1 μM
broad panel of kinases [33] = target: broad panel of kinases (Homo sapiens, UniProt P17948); details: FLT1; 1 μM
Chain of broad panel of kinases (Homo sapiens, UniProt P17948) (P17948 27-1338 limits assumed): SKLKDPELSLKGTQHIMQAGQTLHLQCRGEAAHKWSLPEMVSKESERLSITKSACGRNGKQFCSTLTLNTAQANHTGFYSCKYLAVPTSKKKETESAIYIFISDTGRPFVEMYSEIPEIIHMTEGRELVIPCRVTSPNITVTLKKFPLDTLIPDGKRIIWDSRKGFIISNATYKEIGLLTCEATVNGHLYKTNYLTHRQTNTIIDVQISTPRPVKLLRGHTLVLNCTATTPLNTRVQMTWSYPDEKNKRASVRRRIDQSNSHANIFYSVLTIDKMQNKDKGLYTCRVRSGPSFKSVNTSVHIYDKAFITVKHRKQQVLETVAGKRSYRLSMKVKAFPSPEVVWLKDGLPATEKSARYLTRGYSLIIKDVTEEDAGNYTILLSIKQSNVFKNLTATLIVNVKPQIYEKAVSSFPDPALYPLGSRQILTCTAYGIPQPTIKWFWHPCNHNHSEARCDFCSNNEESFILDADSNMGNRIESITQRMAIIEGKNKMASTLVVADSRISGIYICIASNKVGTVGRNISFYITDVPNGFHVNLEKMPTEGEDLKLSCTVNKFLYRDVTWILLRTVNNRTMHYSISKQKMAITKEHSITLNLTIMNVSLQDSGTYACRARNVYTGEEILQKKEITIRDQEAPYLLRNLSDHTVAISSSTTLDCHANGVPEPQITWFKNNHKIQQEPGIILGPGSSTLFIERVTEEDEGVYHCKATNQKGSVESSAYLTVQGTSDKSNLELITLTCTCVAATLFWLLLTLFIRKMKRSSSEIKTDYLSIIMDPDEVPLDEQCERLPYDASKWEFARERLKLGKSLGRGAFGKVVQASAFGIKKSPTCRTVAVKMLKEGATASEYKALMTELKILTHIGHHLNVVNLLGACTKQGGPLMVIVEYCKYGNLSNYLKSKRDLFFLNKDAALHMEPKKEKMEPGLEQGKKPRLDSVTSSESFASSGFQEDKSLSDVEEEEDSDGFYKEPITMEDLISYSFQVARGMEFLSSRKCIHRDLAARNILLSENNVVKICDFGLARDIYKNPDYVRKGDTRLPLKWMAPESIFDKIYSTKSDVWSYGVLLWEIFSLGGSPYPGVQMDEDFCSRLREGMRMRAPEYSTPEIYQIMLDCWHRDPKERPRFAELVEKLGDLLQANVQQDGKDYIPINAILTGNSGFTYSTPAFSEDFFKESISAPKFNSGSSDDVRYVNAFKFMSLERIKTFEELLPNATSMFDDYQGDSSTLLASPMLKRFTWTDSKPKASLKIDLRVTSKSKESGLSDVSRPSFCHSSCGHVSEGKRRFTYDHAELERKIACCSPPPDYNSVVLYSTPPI

broad panel of kinases [34] = target: broad panel of kinases (Homo sapiens, UniProt P78356); details: PIP5K2B; 1 μM
broad panel of kinases [35] = target: broad panel of kinases (Homo sapiens, UniProt Q8N4C8); details: MINK; 1 μM
broad panel of kinases [36] = target: broad panel of kinases (Homo sapiens, UniProt Q13873); details: BMPR2; 1 μM
broad panel of kinases [37] = target: broad panel of kinases (Homo sapiens, UniProt P00519, F317I); details: 1 μM

| SMILES | percent of control binding remaining (lower = stronger binding) (broad panel of kinases [1]) [%] | percent of control binding remaining (lower = stronger binding) (broad panel of kinases [2]) [%] | percent of control binding remaining (lower = stronger binding) (broad panel of kinases [3]) [%] | percent of control binding remaining (lower = stronger binding) (broad panel of kinases [4]) [%] | percent of control binding remaining (lower = stronger binding) (broad panel of kinases [5]) [%] | percent of control binding remaining (lower = stronger binding) (broad panel of kinases [6]) [%] | percent of control binding remaining (lower = stronger binding) (broad panel of kinases [8]) [%] | percent of control binding remaining (lower = stronger binding) (broad panel of kinases [9]) [%] | percent of control binding remaining (lower = stronger binding) (broad panel of kinases [10]) [%] | percent of control binding remaining (lower = stronger binding) (broad panel of kinases [11]) [%] | percent of control binding remaining (lower = stronger binding) (broad panel of kinases [12]) [%] | percent of control binding remaining (lower = stronger binding) (broad panel of kinases [13]) [%] | percent of control binding remaining (lower = stronger binding) (broad panel of kinases [14]) [%] | percent of control binding remaining (lower = stronger binding) (broad panel of kinases [15]) [%] | percent of control binding remaining (lower = stronger binding) (broad panel of kinases [16]) [%] | percent of control binding remaining (lower = stronger binding) (broad panel of kinases [17]) [%] | % change compared to control (broad panel of kinases [18]) [%] | percent of control binding remaining (lower = stronger binding) (broad panel of kinases [19]) [%] | percent of control binding remaining (lower = stronger binding) (broad panel of kinases [20]) [%] | percent of control binding remaining (lower = stronger binding) (broad panel of kinases [21]) [%] | other results |
| --- | --- | --- | --- | --- | --- | --- | --- | --- | --- | --- | --- | --- | --- | --- | --- | --- | --- | --- | --- | --- | --- |
| C=CC(=O)N1CC[C@H](Nc2nc(CN3CCOCC3)cc(Nc3ncc(C(=O)Nc4c(C)cccc4C)s3)n2)C1 [Example I-2] | 96 | 98 | 100 | 100 | 54 | 0 | 92 | 92 | 1.7 | 73 | 88 | 17 | 100 | 100 | 16 | 88 | 100 | 100 | 100 | 100 | percent of control binding remaining (lower = stronger binding) (broad panel of kinases [7]; ABL1(Q252H)-nonphosphorylated): 0.3%; percent of control binding remaining (lower = stronger binding) (broad panel of kinases [7]; ABL1(Q252H)-phosphorylated): 0.25%; percent of control binding remaining (lower = stronger binding) (broad panel of kinases [22]): 73%; percent of control binding remaining (lower = stronger binding) (broad panel of kinases [23]): 0.8%; percent of control binding remaining (lower = stronger binding) (broad panel of kinases [24]): 92%; percent of control binding remaining (lower = stronger binding) (broad panel of kinases [25]): 97%; percent of control binding remaining (lower = stronger binding) (broad panel of kinases [26]): 97%; percent of control binding remaining (lower = stronger binding) (broad panel of kinases [27]): 88%; percent of control binding remaining (lower = stronger binding) (broad panel of kinases [28]): 100%; percent of control binding remaining (lower = stronger binding) (broad panel of kinases [29]): 81%; percent of control binding remaining (lower = stronger binding) (broad panel of kinases [30]): 89%; percent of control binding remaining (lower = stronger binding) (broad panel of kinases [31]): 100%; percent of control binding remaining (lower = stronger binding) (broad panel of kinases [32]): 75%; percent of control binding remaining (lower = stronger binding) (broad panel of kinases [33]): 93%; percent of control binding remaining (lower = stronger binding) (broad panel of kinases [34]): 98%; percent of control binding remaining (lower = stronger binding) (broad panel of kinases [35]): 71%; percent of control binding remaining (lower = stronger binding) (broad panel of kinases [36]): 100%; percent of control binding remaining (lower = stronger binding) (broad panel of kinases [37]; ABL1(F317I)-nonphosphorylated): 0.15%; percent of control binding remaining (lower = stronger binding) (broad panel of kinases [37]; ABL1(F317I)-phosphorylated): 5.4% |
| C=CC(=O)N1CC[C@H](Nc2nccc(Nc3ncc(C(=O)Nc4c(C)cccc4C)s3)n2)C1 [Example I-3] | 100 | 81 | 100 | 100 | 58 | 0 | 76 | 100 | 14 | 80 | 100 | 7.6 | 100 | 100 | 44 | 78 | 95 | 100 | 92 | 100 | % change compared to control (broad panel of kinases [7]; ABL1(Q252H)-nonphosphorylated): 0.15%; % change compared to control (broad panel of kinases [7]; ABL1(Q252H)-phosphorylated): 0.3%; percent of control binding remaining (lower = stronger binding) (broad panel of kinases [22]): 100%; percent of control binding remaining (lower = stronger binding) (broad panel of kinases [23]): 0.4%; percent of control binding remaining (lower = stronger binding) (broad panel of kinases [24]): 98%; percent of control binding remaining (lower = stronger binding) (broad panel of kinases [25]): 95%; percent of control binding remaining (lower = stronger binding) (broad panel of kinases [26]): 100%; percent of control binding remaining (lower = stronger binding) (broad panel of kinases [27]): 85%; percent of control binding remaining (lower = stronger binding) (broad panel of kinases [28]): 100%; percent of control binding remaining (lower = stronger binding) (broad panel of kinases [29]): 91%; percent of control binding remaining (lower = stronger binding) (broad panel of kinases [30]): 84%; percent of control binding remaining (lower = stronger binding) (broad panel of kinases [31]): 100%; percent of control binding remaining (lower = stronger binding) (broad panel of kinases [32]): 51%; percent of control binding remaining (lower = stronger binding) (broad panel of kinases [33]): 86%; percent of control binding remaining (lower = stronger binding) (broad panel of kinases [34]): 100%; percent of control binding remaining (lower = stronger binding) (broad panel of kinases [35]): 66%; percent of control binding remaining (lower = stronger binding) (broad panel of kinases [36]): 100%; % change compared to control (broad panel of kinases [37]; ABL1(F317I)-nonphosphorylated): 1.2%; % change compared to control (broad panel of kinases [37]; ABL1(F317I)-phosphorylated): 5.2% |
